From patent US11919854B2, “P2RX7 modulators in therapy” (Centre national de la recherche scientifique, priority 2018, dated 2024) come the findings set out here.

One assay has as its target T1, mouse P2RX7 (Mus musculus, UniProt Q9Z1M0).
T1 construct: expressed in transfected cells; host or cells: HEK cells
T1 sequence (Q9Z1M0 1-595): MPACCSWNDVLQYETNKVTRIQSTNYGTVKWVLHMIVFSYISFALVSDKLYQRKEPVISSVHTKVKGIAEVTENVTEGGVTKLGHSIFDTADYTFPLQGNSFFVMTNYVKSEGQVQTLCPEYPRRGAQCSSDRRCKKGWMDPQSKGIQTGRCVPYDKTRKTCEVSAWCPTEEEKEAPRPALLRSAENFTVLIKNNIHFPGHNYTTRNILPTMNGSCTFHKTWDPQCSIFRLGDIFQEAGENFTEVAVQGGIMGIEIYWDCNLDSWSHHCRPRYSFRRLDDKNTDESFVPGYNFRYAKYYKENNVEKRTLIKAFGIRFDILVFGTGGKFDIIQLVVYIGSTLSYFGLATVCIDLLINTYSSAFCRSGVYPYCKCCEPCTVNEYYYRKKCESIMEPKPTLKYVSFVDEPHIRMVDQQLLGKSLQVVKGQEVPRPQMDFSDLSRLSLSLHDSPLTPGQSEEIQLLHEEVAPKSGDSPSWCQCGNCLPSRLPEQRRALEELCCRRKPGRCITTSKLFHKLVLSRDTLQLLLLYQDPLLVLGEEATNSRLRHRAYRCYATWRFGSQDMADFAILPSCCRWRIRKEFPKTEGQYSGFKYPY
The assay can be described thus: Calcium influx and large cation permeation by FACS, 15 min, HEK cells with mouse P2RX7, increasing doses of BzATP. The format is cell-based. The settings on record: 15 min stimulation. How it is done:
Calcium influx (Fluo-AM positive cells) and large cation permeation (Topro3 positive cells) were assayed by FACS 15 min after stimulation of HEK cells transfected with the mouse P2RX7 treated with increasing doses of BzATP.
(§1) Complementary analyses were also performed to document the biological activity of HEI3090, the more soluble version of HEI2328, on both HEK cells expressing mouse P2RX7 (mP2RX7) (FIG. 14) or human P2RX7 (hP2RX7) (FIG. 15). BzATP or ATP stimulate channel activity, an event that occurred in the first minutes of P2RX7 stimulation. […] The same positive effect was observed on cells expressing human P2RX7 (FIG. 15).

Assay [1] addresses T2, human P2RX7 (Homo sapiens, UniProt Q99572).
T2 construct: expressed in transfected cells; host or cells: HEK cells
T2 sequence (Q99572 1-595): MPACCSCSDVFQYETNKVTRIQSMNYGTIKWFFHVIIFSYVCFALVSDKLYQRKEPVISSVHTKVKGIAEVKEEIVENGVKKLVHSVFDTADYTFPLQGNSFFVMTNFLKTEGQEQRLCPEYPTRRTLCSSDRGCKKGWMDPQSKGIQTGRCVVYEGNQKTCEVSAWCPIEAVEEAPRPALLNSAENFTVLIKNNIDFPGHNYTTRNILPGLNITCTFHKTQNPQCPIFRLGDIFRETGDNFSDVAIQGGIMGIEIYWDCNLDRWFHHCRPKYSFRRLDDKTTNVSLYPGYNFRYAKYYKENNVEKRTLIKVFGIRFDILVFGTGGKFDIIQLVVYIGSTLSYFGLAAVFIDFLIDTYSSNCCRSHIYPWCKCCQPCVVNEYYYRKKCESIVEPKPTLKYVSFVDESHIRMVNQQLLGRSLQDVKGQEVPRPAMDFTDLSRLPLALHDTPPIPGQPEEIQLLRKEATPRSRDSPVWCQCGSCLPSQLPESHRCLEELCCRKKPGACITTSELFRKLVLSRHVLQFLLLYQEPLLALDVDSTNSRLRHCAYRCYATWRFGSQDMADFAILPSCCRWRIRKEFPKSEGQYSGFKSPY
The assay is described as follows: Calcium influx and large cation permeation by FACS, 15 min, HEK cells with human P2RX7, increasing doses of HEI3090. The format is cell-based. The settings on record: increasing doses of HEI3090, 7.8 μM BzATP. The procedure:
Calcium influx (Fluo-AM positive cells) and large cation permeation (Topro3 positive cells) were assayed by FACS 15 min after stimulation of HEK cells transfected with the human P2RX7 that were treated with increasing doses of HEI3090 in the presence of 7.8 μM BzATP.
as §1

Assay [2] has as its target T2, human P2RX7. The assay can be described thus: Large pore opening with increasing BzATP in human P2RX7 expressing cells. The format is cell-based. The conditions noted are these: increasing concentration of BzATP with or without HEI3090. How it is done: (§2) A. Splenocytes from control or p2rx7^exon2 KO mice were isolated and treated with HEI3090 (50 μM) in presence of absence of BzATP (500 μM). B. Large pore opening induced by increasing concentration of BzATP in presence or absence of HEI3090 in human P2RX7 expressing cells.
(§3) Indeed, with the same BzATP concentration, more cells are positive for Topro3 staining.

The test system of a further assay is P2RX7. The assay can be described thus: Large pore opening in splenocytes from control or p2rx7 KO mice. The format is cell-based, mouse. The settings on record: HEI3090 50 μM, BzATP 500 μM. The procedure: as §2, §3

Entries after “also recorded” stand apart in the source; their conditions may differ.

`O=C(NCc1ccc(Cl)cc1Cl)[C@@H]1CCC(=O)N1C(=O)Nc1ccc(Cl)nc1` [HEI3090, (S)—N^1-(6-Chloropyridin-3-yl)-N^2-(2,4-dichlorobenzyl)-5-oxopyrrolidine-1,2-dicarboxamide]: at mouse P2RX7 (increasing doses of BzATP, HEI3090 250 nM), the “decrease of the EC50 (BzATP) in the presence of HEI3090” value came out at 22%. Also, the “shift of the EC50 for BzATP” value on mouse P2RX7 (low dose of HEI3090 (250 nM)) was “shift to the left of the EC50 for BzATP”. Moreover, on human P2RX7 [1], the “increase of Ca influx (Fluo-AM positive cells)” value was determined as 3 fold and the “increase of large cation influx (Topro3 positive cells)” value stood at 3 fold. Also, the “large pore opening (Topro3 staining)” value on human P2RX7 [2] is “enhanced large pore opening in presence of BzATP”. For the same molecule, in the assay on P2RX7, the “Topro3 incorporation / effect in splenocytes from P2rx7 KO mice” value is “Topro3 incorporation is lost; also recorded: absence of effect”. Also, in the assay on P2RX7 (splenocytes from control mice), the “large pore opening in presence of BzATP” value is “potentializes large pore opening in presence of BzATP”.
